From patent US8784824B2, “Compositions and methods for treatment of angiogenesis in pathological lesions” (Philogen S.p.A., priority 2000, dated 2014)
One block for each substance: values may come before it.

What was measured:
[1] = biological target: recombinant human fibronectin fragment 7B89 (human) (UniProt P02751); experiment: 125I-labelled protein on a 7B89/Sepharose column
tumor cells = experiment: Block of tumor cell proliferation by L19-IFN-γ fusion proteins; format: cell-based; conditions: typical IFN-γ-dependent fashion
[2] = biological target: T1, ED-B domain of fibronectin (Homo sapiens, UniProt P02751); experiment: Binding of L19-IFN-γ fusion proteins to ED-B (ELISA, BIAcore)
T1 sequence (P02751 1271-1359 limits assumed): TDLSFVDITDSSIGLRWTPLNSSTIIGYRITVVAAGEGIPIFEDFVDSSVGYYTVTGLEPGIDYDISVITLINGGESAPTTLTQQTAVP

[3] = biological target: T1, ED-B domain of fibronectin; experiment: Antigen binding assays of scFv(L19)-TF (ELISA, BIAcore, antigen column)
Experimental: The immunoreactivity of the scFv-TF fusion protein was analyzed by ELISA immunoassay, by BIAcore and by affinity chromatography on antigen column, as described (Neri et al., 1996; D. Neri et al. (1997) Nature Biotechnology, 15, 1271-1275.; Tarli et al., 1999).

[4] = test system: subcutaneously implanted F9 murine teratocarcinoma; experiment: Biodistribution of radioiodinated scFv(L19)-TF; format: in vivo, mouse; conditions: injected intravenously, quantitative biodistribution (FIG. 3)
Experimental: The in vivo targeting performance was analysed by biodistribution analysis as described in Tarli et al. (1999). Briefly, purified scFv(L19)-TF fusion protein was radioiodinated and injected into nude mice with subcutaneously implanted F9 murine teratocarcinoma. Mice were sacrificed at 24 hours after injection. The organs were weighed and the radioactivity counted. Targeting results of representative organs are expressed as percent of the injected dose per gram of tissue (% ID/g).

C51 murine carcinoma = experiment: In vivo treatment with scFv-TF fusion protein, C51 tumors; set-up: species or system mouse
Experimental: (§1) Tumor bearing mice were obtained by subcutaneous injection of 10^6 of FE8 rat fibroblast, C51 colon carcinoma or F9 teratocarcinoma cells (Tarli et al., 1999). The cells were allowed to grow until the tumoral volume could be measured by a slide-calliper.
(§2) Mice with tumors of volume ca 200-300 mm^3 were injected with 20 ug scFv-TF fusion protein corresponding to 10 ug TF in 200 ul saline. The injection was repeated after 48 and 96 hours. Mice were monitored by tumor volume, weight and appearance including photographic documentation.
(§3) Mice with tumors of volume ca 1500 mm^3 were injected with a single dose of with 20 ug scFv-TF fusion protein corresponding to 10 ug TF in 200 ul saline. The injection was not repeated. Mice were monitored by tumor volume, weight and appearance including photographic documentation.

[5] = test system: F9 murine teratocarcinoma; experiment: In vivo treatment with scFv-TF fusion protein, F9 tumors; set-up: species or system mouse; conditions: small F9 tumors; three injections of 20 μg (FIG. 4)
Experimental: as §1, §2

[6] = test system: F9 murine teratocarcinoma, C51 murine carcinoma or FE8 tumors; experiment: Tumor infarction after scFv-TF injection in tumor bearing mice; format: in vivo, mouse; conditions: few hours after injection
Experimental: The antitumor activity of scFv(L19)-TF and scFv(D1.3)-TF was tested in mice bearing the F9 murine teratocarcinoma, the C51 murine carcinoma or FE8 tumors (derived from subcutaneously implanted ras-transformed rat fibroblasts). Experiments were performed both in mice bearing small tumors and in mice bearing very large tumors.
as §1

[7] = test system: FE8 tumors (ras-transformed rat fibroblasts); experiment: In vivo treatment with scFv-TF fusion protein, FE8 tumors; set-up: species or system mouse; conditions: large FE8 tumors; one injection of 20 μg (FIG. 7)
Experimental: as §1, §3

FXa = experiment: Enzymatic activity of TF moiety, Spectrozyme FXa assay; format: biochemical; conditions: method of Ruf et al
Experimental: The enzymatic activity of the scFv-TF fusion protein was analyzed using the Spectrozyme FXa assay (American Diagnostica, Pfungstadt, Germany) as described by Ruf et al (1991).

recombinant human fibronectin fragment 7B89 (human), sequence (P02751 1173-1537 limits assumed): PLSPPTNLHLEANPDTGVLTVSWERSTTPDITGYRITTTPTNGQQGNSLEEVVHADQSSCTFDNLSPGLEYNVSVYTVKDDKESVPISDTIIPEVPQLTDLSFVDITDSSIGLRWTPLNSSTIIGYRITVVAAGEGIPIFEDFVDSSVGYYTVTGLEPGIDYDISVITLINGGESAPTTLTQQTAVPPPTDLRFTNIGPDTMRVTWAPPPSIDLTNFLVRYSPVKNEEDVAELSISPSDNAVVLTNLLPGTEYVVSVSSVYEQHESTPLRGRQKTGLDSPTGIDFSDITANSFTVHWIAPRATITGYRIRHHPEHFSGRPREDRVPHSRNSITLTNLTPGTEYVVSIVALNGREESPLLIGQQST

immunoreactive fraction [1]: > 90%
Substance: L19-IL2 fusion protein (from UniProt P60568 21-153)

binding to the ED-B domain of fibronectin [2]: strong binding
Substance: scFv(L19)-(IFN-γ)2: IFN-γ homodimer (two IFN-γ joined by a polypeptide linker) fused at the C-terminal extremity of scFv(L19)
block of proliferation of tumor cells (tumor cells): block the proliferation of tumor cells

activity of the antibody moiety [3]: active
Substance: scFv(L19)-TF: scFv(L19) specific for ED-B domain of fibronectin genetically fused to truncated tissue factor
ability to target solid tumors [4]: target solid tumors
antitumor effect on tumor growth (C51 murine carcinoma; large C51 tumors, one injection of 20 μg (FIG. 6)): stopped tumor growth
reduction of growth rate (C51 murine carcinoma; small C51 tumors, three injections of 20 μg (FIG. 5)): approx. 50%
reduction of growth rate [5]: approx. 50%
tumor infarction [6]: rapid and extensive tumor infarction
antitumor effect on tumor growth [7]: stopped tumor growth
activity of the TF moiety (FXa): active

binding to the ED-B domain of fibronectin [2]: bind with high-affinity
Substance: scFv(L19)-IFN-γ: IFN-γ monomer fused at the C-terminal extremity of scFv(L19)
block of proliferation of tumor cells (tumor cells): block the proliferation of tumor cells
